5 compounds from US20260258054A1, “SMALL MOLECULE FOR TREATMENT OF CANCER OF THE APPENDIX” (The Regents of the University of California, priority 2022, published 2026) can be followed below.

“Also recorded” adds a separate entry of the source.

Test [1] deals with SNU-175 cells (GNAS^R201C). Kind of test: Incucyte viability (confluence), SNU-175 cells. The format is cell-based, human. The method, then:
(§1) Viability was measured over time but determining cell confluence in experimental well using Incucyte Live-Cell Analysis system (Sartorius). JVS-324 was added in increasing concentrations and cell growth monitored for 72 hours. Confluency evaluation was normalized time point zero. An isogenic paired cell line was created by using CRISPR-Cas9 to knockout (KO) GNAS from the SNU-175 cell line; this model system has been previously described (Oncogene. 2022 August; 41 (35):4159-4168).
(§2) Viability was measured over time but determining cell confluence in experimental well using Incucyte Live-Cell Analysis system (Sartorius); two experiments performed. […] (FIG. 26).

For test [2], the system named is GNAS KO SNU-175. Kind of test: Incucyte viability (confluence), GNAS KO SNU-175 cells. It counts as cell-based, human. The method, then:
as §1, §2

In test [3] the test system is SNU-175 (GNAS^R201C CRC cell line). Kind of test: cAMP-Glo assay, SNU-175 cells. It counts as cell-based, human. The method, then: (§3) A study was conducted to examine the effect of compound GE3 as a Gαs Inhibitor. Cells were treated with compound GE3 at high (1-5 mM) and low (0-0.5 mM) doses for 20 hours. cAMP levels were measured using the CAMP-Glo™ Assay (Promega). An isogenic paired cell line was created by using CRISPR-Cas9 to knockout (KO) GNAS from the SNU-175 cell line; this model system has been previously described (Oncogene. 2022 August; 41(35):4159-4168).
(§4) The same experimental system was used as above to test lower doses of GE3.

Test [4] concerns GNAS KO isogenic paired cell line of SNU-175. Kind of test: cAMP-Glo assay, GNAS KO SNU-175 cells. The format is cell-based, human. Conditions: mM doses (1-5 mM), 20 hours. The method, then:
as §3, §4

Test [5] has as its system KM12 GNAS^352delG organoids. As to the kind of experiment: 3D organoid growth, KM12 GNAS knockout (GNAS^352delG) organoids. It counts as cell-based, human. Conditions: supplementation of organoid cultures with conditioned medium. The method, then: (§5) FIGS. 4A-4C: GNAS signals through the CAMP-PKA axis. (FIG. 4A), KM12 GNAS^R201H and GNAS^352delG cells were treated with forskolin (0-250 μM) for 15 min. Following the treatment, cells were lysed, and cAMP levels were measured as described in the methods. (FIG. 4B), LS174T GNAS^R201H cells were treated with and without doxycycline, and cAMP levels measured after induction with forskolin (0-2.5 μM) for 15 min. (FIG. 4C), KM12 GNAS^R201H and GNAS^352delG organoids were grown in 3D-matrigel domes and treated with the PKA inhibitor H-89 (60 μM) for 10 days.
FIGS. 5A-5F: β-catenin is a downstream mediator of mutant GNAS signaling. (FIG. 5A), Top 10 hallmark genesets from the KM12 GNAS^KO-pool and LS174T GNAS overexpression datasets were selected and overlapping genesets were plotted. (FIG. 5B), Ratio of pT41/S45 phosphoβ-catenin/β-catenin based on the RPPA analysis results. (FIG. 5C), Immunohistochemistry (IHC) staining of β-catenin in LS174T dox (−) and dox (+) tissues from intraperitoneal mouse tumors. (FIG. 5D), Quantification of IHC tumors showing % of cells staining positive of β-catenin. (FIG. 5E), Quantification of the cytoplasmic and nuclear distribution of β-catenin based on IHC staining. (FIG. 5F), Effect of LF3 (β-catenin inhibitor) on the growth of KM12 (GNAS^R201H and GNAS^352delG) organoids. DMSO (0.2%) was used as control treatment and organoids were cultured for 10 days.
FIGS. 9A-9B: Wnt stimulation rescued growth of GNAS knockout organoids. (FIG. 9A), 3D growth of KM12 GNAS knockout organoids after supplementation with Wnt3a or R-spondin conditioned medium. (FIG. 9B), Quantification of growth by measuring total colony area (%).
KM12 and LS174T cells were suspended with Matrigel (BD) at 100 cells/μL and plated as 5 μL droplets onto 96-well multi-well culture plates. The plates were incubated at 37° C. for 15 min. […] The plates were placed in the cell imaging multi-mode plate reader Cytation™ 5 (Biotek, Winooski, VT) at 37° C. in an atmosphere supplemented with 5% CO2. […] The numbers and total area of organoids were calculated.

For test [6], the system named is MEK regulated genes. Kind of test: RNAseq analysis of post-treatment samples from trial NCT03108131 in appendiceal cancer. Particulars: cobimetinib with atezolizumab, three post-treatment samples. It counts as in vivo.
For test [7], the system named is KM12 GNAS^R201H organoids. As to the kind of experiment: 3D organoid growth, KM12 GNAS^R201H organoids. It counts as cell-based, human. Conditions: H-89 60 μM, 10 days, vs. DMSO control, p=0.004. The method, then: as §5
FIGS. 5A-5F: β-catenin is a downstream mediator of mutant GNAS signaling. (FIG. 5A), Top 10 hallmark genesets from the KM12 GNAS^KO-pool and LS174T GNAS overexpression datasets were selected and overlapping genesets were plotted. […] (FIG. 5D), Quantification of IHC tumors showing % of cells staining positive of β-catenin. (FIG. 5E), Quantification of the cytoplasmic and nuclear distribution of β-catenin based on IHC staining. […]
KM12 and LS174T cells were suspended with Matrigel (BD) at 100 cells/μL and plated as 5 μL droplets onto 96-well multi-well culture plates. […] The plates were placed in the cell imaging multi-mode plate reader Cytation™ 5 (Biotek, Winooski, VT) at 37° C. in an atmosphere supplemented with 5% CO2. […] The numbers and total area of organoids were calculated.

Test [8] deals with LS174T GNAS^R201H cells. Kind of test: cAMP levels, LS174T cells overexpressing GNAS^R201H. The format is cell-based, human. Conditions: forskolin 0-2.5 μM, 15 min; doxycycline induced. The method, then: as §5
For orientation: Cyclic AMP is a second messenger, typically raised through Gs and lowered through Gi signalling.

One may read the IC50 as the concentration that gives 50% inhibition. Regarding `CCC(CC)COC(=O)[C@H](C)NP(=O)(OC[C@H]1O[C@@H](n2cnc3c(=O)[nH]c(N)nc32)[C@@H]2O[C@@H]21)Oc1ccccc1` (stereo partly drawn) [GE3], the “dose by which growth was comparable to the level in the KO cells” value in test [1] is on record as 0.01 mM. Besides, the “cell growth / viability” value in test [1] (GE3, lower doses) is on record as “dose-dependent fashion; also recorded: decreased viability”. The cell growth result in test [1] (GE3 at mM doses) is recorded as “significantly reduced growth”; in test [1] (GE3 by 1 mM), “essentially no growth”; in test [2] (GE3 at mM doses), “significantly reduced growth”; in test [2] (GE3 by 1 mM), “essentially no growth”. Moreover, the IC50 in test [1] (Homo sapiens, read-out: IC50 in viability assay) is 105 µM. Further, the “potency relative to JVS-324 (cAMP)” value in test [3] is given as “significantly more potent”. Also, the “dose by which cAMP level was comparable to the level in the KO cells” value in test [3] (20 hours) is reported as 0.01 mM. Moreover, the cAMP levels entry is recorded as “dose-dependent fashion; also recorded: inhibits cAMP production” in test [3] (lower doses (0-0.5 mM), 20 hours); “significantly reduced CAMP; also recorded: inhibits cAMP production” in test [3] (mM doses (1-5 mM), 20 hours); “significantly reduced CAMP” in test [4].
With Wnt3a, the “rescue of organoid growth of GNAS-knockout cells” value was “rescued organoid growth” in test [5], “can be rescued” in test [5] (listed as WNT3A) and “rescue GNAS knockout” in test [5] (listed as Wnt3A).
On to `O=C(c1ccc(F)c(F)c1Nc1ccc(I)cc1F)N1CC(O)([C@@H]2CCCCN2)C1` [cobimetinib], for which the “expression of MEK regulated genes” value in test [6] is “not down regulated”.
As to `O=S(=O)(NCCNC/C=C/c1ccc(Br)cc1)c1cccc2cnccc12` [Compound H-89], the “reduced the growth of KM12 organoids” value in test [7] is 79%.
On to `C=C[C@@]1(C)CC(=O)[C@]2(O)[C@@]3(C)[C@@H](O)CCC(C)(C)[C@@H]3[C@H](O)[C@H](OC(C)=O)[C@@]2(C)O1` [forskolin], for which the “effect of forskolin on basal levels of cAMP” value in test [8] is “no effect”.
